Assay results published in patent US10077289B2, “Cyclosporins modified on the MeBmt sidechain by heterocyclic rings” (priority 2015, dated 2018).
Values after ≈ are worked out from the molar mass of the structure shown. Like-named read-outs stand apart in the source and are kept apart here.

What was measured:
[1] = Water Solubility Assay (measured in pH 7.8 buffer); assay type: physicochemical; conditions: 25 °C, pH 7.8, aqueous buffer, kinetic from dmso stock
Method: Water Solubility Assay (Measured in pH 7.8 Buffer)
The aqueous solubility of a compound of Formula I in buffer (pH 7.8) was measured by recording the onset of precipitation of the compound as a function of increasing concentration. The onset of precipitation, if it occurred, was detected by an increase in absorbance at 650 nm.
Assay Buffer: 35 mM HEPES pH 7.8
Stock solutions of Control and Test Compounds: 10 mM in 100% DMSO.
10 mM stock solutions of control and test compounds were prepared in 100% DMSO.
Assay buffer (247.5 μl) was placed into flat bottomed transparent 96-well plate. For blank samples DMSO (2.5 μl) was added. For test and control samples 2.5 μl of the appropriate DMSO dilution stocks were added to the appropriate well. All test and control compounds were performed in triplicate.
The plates were sealed with adhesive plate seal and shaken at 250 rpm at 25° C. for 18 h on a plate shaker. After incubation the plate seals were taken off and any bubbles observed in wells removed. The plates were read on a SpectraMaxM5 with a 5 s pre-shake at 650 nm. Data files were transferred to the appropriate worksheet and the solubility range of the compounds was calculated from the data. The values shown in the Tables indicate the concentration in μM (micromolar) at which the compound remains in solution.

[2] = molecular target: Human recombinant cyclophilin A (Cyp A) (Homo sapiens (Human), UniProt P62937); test: Protease-free PPIase assay
Method: Protease-Free PPIase Assay
The protease-free PPIase assay measures the rate of cis to trans conversion of a peptide substrate catalyzed by the enzyme cyclophilin A. Addition of a cyclophilin A inhibitor (e.g., a test compound) slows the catalyzed rate and a Ki value is obtained.
35 mM HEPES pH 7.8, filtered through a 0.2 μm filter. 50 μM DTT was added prior to use each day and then the buffer was stored on ice.
Human recombinant cyclophilin A (Cyp A) (Sigma C3805) enzyme was diluted to 1 μM with enzyme dilution buffer (20 mM HEPES pH 7.8, 40% glycerol, 50 μM DTT and 1 μM BSA) and stored at −20° C.
Succinimide-Ala-Ala-Pro-Phe-p-nitroanilide (SUC-AAPF-pNA) (from Bachem AG, L-1400), 20 mg/ml prepared in 0.5 M LiCl in trifluoroethanol.
The temperature is monitored by the use of a temperature probe. To prevent UV degradation of test compounds, the light below 290 nm was blocked using a glass slide in the light path. 1.5 ml of the assay buffer was put into a 3 ml quartz cuvette and cooled to 10.0±0.1° C. while stirring (vigorous but not so fast as to produce cavitation). The inhibitor was diluted in 100% DMSO, and then added to the assay to a maximum final concentration of 0.5% DMSO in the assay. A blank spectrum was obtained, then 3 μL of enzyme was added (2 nM final concentration) and then 3 μL substrate (60 μM final concentration) added. The absorbance was measured at 330 nm for 300 s or 500 s for blank runs (NOTE: the substrate must be added in one quick injection and the measurements started immediately to minimize mixing errors).
A first order rate equation was fitted to the absorbance data, for each concentration of inhibitor, to obtain the rate constant (the first 10 to 15 seconds were excluded as mixing causes errors in this portion of curve). The catalytic rate was calculated from the enzymatic rate constant minus the background rate constant. An exponential curve was generated using the catalytic rate constants versus the inhibitor concentration to obtain the Ki value for the inhibitor. The Ki value is indicative of the binding affinity between the test compound and cyclophilin A.

[3] = molecular target: calcineurin/cyclophilin A (Homo sapiens (Human), UniProt P62937+P63098+Q08209); test: Calcineurin Phosphatase (CaN) Assay (+CypA); assay type: biochemical
Source text: Calcineurin Phosphatase (CaN) Assay
The calcineurin phosphatase assay is a means for estimating the immunosuppressive potential of a test compound. Calcineurin is a serine-threonine protein phosphatase that on activation dephosphorylates members of the nuclear factor of activated T cells (NFAT), which are important in T lymphocyte activation.
To investigate the immunosuppressive potential of exemplary compounds of Formula I, which are cyclosporin analogs, their ability to inhibit calcineurin activity was measured in the presence and absence of Cyp A.
The CaN assay kit used is based on a colorimetric assay for measuring calcineurin phosphatase activity, and it is commercially available (Enzo Life Sciences and Calbiochem). Calmodulin is also required for calcineurin activity and RII phosphopeptide is used as an efficient peptide substrate for calcineurin. […] The detection of free phosphate released is based on the classic Malachite green assay.
Enzo Life Sciences CaN Assay Kit: BML-AK804
Malachite Green: BIOMOL Green™ reagent
Calmodulin (Human, recombinant): was thawed on ice, diluted 1:50 with 2× assay buffer, and then stored on ice.
Calcineurin: was thawed quickly, stored on ice immediately, diluted 1:12.5 with 1× assay buffer, and then stored on ice.
R-II Substrate: 915 μL ultrapure water (UPW) was added to the 1.5 mg vial substrate to give a final concentration of 0.75 mM.
Inhibitors: 2.5 mM inhibitor in 100% DMSO.
Cyp A: recombinant human CypA (Sigma C3805), 1 mg/ml; Recombinant 6-His tagged CypA prepared by the University of Edinburgh was also used.
Inhibitor dilutions: inhibitor compounds were diluted in UPW in polypropylene low-binding 96 well plates at 5× the final assay concentration.
Assay Setup: using the half area 96 well plates supplied with the kit, 10 μl UPW was added to duplicate wells to provide the non-inhibited control. 10 μl of the inhibitor or the inhibitor/Cyp A complex was added to the appropriate sample wells. 25 μl of the 2× assay buffer with CaM was added to all wells, then 5 μl of CaN was added to all wells (40 U per well final concentration) except duplicate ‘no calcineurin blank’ wells to which 5 μL 1× assay buffer was added. The assay plate was placed in an oven at 30° C. for 15 minutes to equilibrate to the reaction temperature. The reaction was started by the addition of 10 μl RII-peptide (0.15 mM final concentration). The reaction was allowed to proceed at 30° C. for a time period in which the reaction is linear for about 60 minutes. The reaction was then terminated by adding 100 μl of the Malachite Green reagent. The color was allowed to develop for 15-30 minutes at room temperature before the absorbance at 620 nm was measured using a plate reader (Molecular Devices—SpectraMax M5). The data were analyzed by subtracting ‘no Calcineurin blank’ from all the absorbance readings and plotting the background corrected absorbances against Log10 inhibitor concentration. A sigmoidal-dose response curve was fitted to the data using GraphPad Prism Software.
It exerts its immunosuppressive activity by binding to cyclophilin A to form a complex, which then binds to calcineurin and thereby inhibits calcineurin activity.

[4] = in the presence of Cyp A, 1:1 complex with inhibitor, read-out: Calcineurin Phosphatase (CaN) Assay (+CypA) IC50
[5] = read-out: Protease-free PPIase Assay Ki, human recombinant Cyp A, 10 °C

Row | SMILES | solubility at 18 h [1] | Ki [2] | IC50 [3, 4] | Ki [2, 5] | IC50 [3]
1 | CC[C@H]1NC(=O)[C@@H]([C@H](O)[C@H](C)Cc2nc3ccccc3[nH]2)N(C)C(=O)[C@@H](C(C)C)N(C)C(=O)[C@@H](CC(C)C)N(C)C(=O)[C@@H](CC(C)C)N(C)C(=O)[C@H](C)NC(=O)[C@@H](C)NC(=O)[C@@H](CC(C)C)N(C)C(=O)[C@@H](C(C)C)NC(=O)[C@H](CC(C)C)N(C)C(=O)CN(C)C1=O [Compound 10, [(2S,3R,4R)-1-(1H-Benzimidazol-2-yl)-3-hydroxy-4-methyl-2-(methylamino)pentanoic acid]^1 cyclosporin A] | 25 to 50 µM (≈ 32 to 63.9 µg/mL) | – | – | – | –
2 | CC[C@H]1NC(=O)[C@@H]([C@H](O)[C@H](C)CCCc2ccn(C)n2)N(C)C(=O)[C@@H](C(C)C)N(C)C(=O)[C@@H](CC(C)C)N(C)C(=O)[C@@H](CC(C)C)N(C)C(=O)[C@H](C)NC(=O)[C@@H](C)NC(=O)[C@@H](CC(C)C)N(C)C(=O)[C@@H](C(C)C)NC(=O)[C@H](CC(C)C)N(C)C(=O)[C@@H](C)N(C)C1=O [Compound 25, [(2S,3R,4R)-3-Hydroxy-4-methyl-2-(methylamino)-7-(1-methylpyrazol-3-yl)heptanoic acid]^1 [(R)-methyl-Sar]^3 cyclosporin A] | > 100 µM | 3.8 nM | 1460 nM | – | –
3 | CC[C@H]1NC(=O)[C@@H]([C@H](O)[C@H](C)Cc2nc3ccccc3[nH]2)N(C)C(=O)[C@@H](C(C)C)N(C)C(=O)[C@@H](CC(C)C)N(C)C(=O)[C@@H](CC(C)C)N(C)C(=O)[C@H](C)NC(=O)[C@@H](C)NC(=O)[C@@H](CC(C)C)N(C)C(=O)[C@@H](C(C)C)NC(=O)[C@H](CC(C)C)N(C)C(=O)[C@@H](C)N(C)C1=O [Compound 9, [(2S,3R,4R)-1-(1H-Benzimidazol-2-yl)-3-hydroxy-4-methyl-2-(methylamino)pentanoic acid]^1 [(R)-methyl-Sar]^3 cyclosporin A] | 25 to 50 µM (≈ 32.3 to 64.6 µg/mL) | 2.3 nM | > 10000 nM | – | –
4 | CC[C@H]1NC(=O)[C@@H]([C@H](O)[C@H](C)Cc2nccn2CCC(F)(F)F)N(C)C(=O)[C@@H](C(C)C)N(C)C(=O)[C@@H](CC(C)C)N(C)C(=O)[C@@H](CC(C)C)N(C)C(=O)[C@H](C)NC(=O)[C@@H](C)NC(=O)[C@@H](CC(C)C)N(C)C(=O)[C@@H](C(C)C)NC(=O)[C@H](CC(C)C)N(C)C(=O)[C@@H](C)N(C)C1=O [Compound 8, [(2S,3R,4R)-3-Hydroxy-4-methyl-2-(methylamino)-5-[3-(3,3,3-trifluoro-propyl)-3H-imidazol-2-yl]-pentanoic acid]^1 [(R)-methyl-Sar]^3 cyclosporin A] | – | – | > 10000 nM | 7.4 nM | –
5 | CC[C@H]1NC(=O)[C@@H]([C@H](O)[C@H](C)CCCc2cn3c(n2)CCCC3)N(C)C(=O)[C@@H](C(C)C)N(C)C(=O)[C@@H](CC(C)C)N(C)C(=O)[C@@H](CC(C)C)N(C)C(=O)[C@H](C)NC(=O)[C@@H](C)NC(=O)[C@@H](CC(C)C)N(C)C(=O)[C@@H](C(C)C)NC(=O)[C@H](CC(C)C)N(C)C(=O)[C@@H](C)N(C)C1=O [Compound 19] | – | – | – | 5.4 nM | > 10000 nM
6 | CC[C@H]1NC(=O)[C@@H]([C@H](O)[C@H](C)CCCc2ccc(F)cn2)N(C)C(=O)[C@@H](C(C)C)N(C)C(=O)[C@@H](CC(C)C)N(C)C(=O)[C@@H](CC(C)C)N(C)C(=O)[C@H](C)NC(=O)[C@@H](C)NC(=O)[C@@H](CC(C)C)N(C)C(=O)[C@@H](C(C)C)NC(=O)[C@H](CC(C)C)N(C)C(=O)[C@@H](C)N(C)C1=O [Compound 14, [(2S,3R,4R)-7-(5-Fluoro-pyridin-2-yl)-3-hydroxy-4-methyl-2-(methylamino)-heptanoic acid]^1 [(R)-methyl-Sar]^3 cyclosporin A] | – | 1.5 nM | 8750 nM | – | –
7 | CC[C@H]1NC(=O)[C@@H]([C@H](O)[C@H](C)CCCc2ncco2)N(C)C(=O)[C@@H](C(C)C)N(C)C(=O)[C@@H](CC(C)C)N(C)C(=O)[C@@H](CC(C)C)N(C)C(=O)[C@H](C)NC(=O)[C@@H](C)NC(=O)[C@@H](CC(C)C)N(C)C(=O)[C@@H](C(C)C)NC(=O)[C@H](CC(C)C)N(C)C(=O)[C@@H](C)N(C)C1=O [Compound 24] | > 100 µM | – | – | – | –

Continued, in another order:

Row | solubility at 18 h [1] | Ki [2] | IC50 [3, 4] | SMILES | Ki [2, 5] | IC50 [3]
8 | 50 to 75 µM (≈ 63.4 to 95.1 µg/mL) | – | 2650 nM | CC[C@H]1NC(=O)[C@@H]([C@H](O)[C@H](C)CCCc2ccccn2)N(C)C(=O)[C@@H](C(C)C)N(C)C(=O)[C@@H](CC(C)C)N(C)C(=O)[C@@H](CC(C)C)N(C)C(=O)[C@H](C)NC(=O)[C@@H](C)NC(=O)[C@@H](CC(C)C)N(C)C(=O)[C@@H](C(C)C)NC(=O)[C@H](CC(C)C)N(C)C(=O)CN(C)C1=O [Compound 29, [(2S,3R,4R)-3-Hydroxy-4-methyl-2-(methylamino)-7-(pyridine-2-yl)-heptanoic acid]^1 cyclosporin A] | 11 nM | –
9 | 50 to 75 µM (≈ 63.4 to 95.1 µg/mL) | 9.5 nM | 3950 nM | CC[C@H]1NC(=O)[C@@H]([C@H](O)[C@H](C)CCCc2cccnc2)N(C)C(=O)[C@@H](C(C)C)N(C)C(=O)[C@@H](CC(C)C)N(C)C(=O)[C@@H](CC(C)C)N(C)C(=O)[C@H](C)NC(=O)[C@@H](C)NC(=O)[C@@H](CC(C)C)N(C)C(=O)[C@@H](C(C)C)NC(=O)[C@H](CC(C)C)N(C)C(=O)CN(C)C1=O [Compound 31, [(2S,3R,4R)-3-Hydroxy-4-methyl-2-(methylamino)-7-(pyridin-3-yl)-heptanoic acid]^1 cyclosporin A] | – | –
10 | > 100 µM | 3.1 nM | 4650 nM | CC[C@H]1NC(=O)[C@@H]([C@H](O)[C@H](C)CCCc2ccccn2)N(C)C(=O)[C@@H](C(C)C)N(C)C(=O)[C@@H](CC(C)C)N(C)C(=O)[C@@H](CC(C)C)N(C)C(=O)[C@H](C)NC(=O)[C@@H](C)NC(=O)[C@@H](CC(C)C)N(C)C(=O)[C@@H](C(C)C)NC(=O)[C@H](CC(C)C)N(C)C(=O)[C@@H](CO)N(C)C1=O [Compound 34] | – | –
